# Test results published in patent publication US6664036B1, “Homogeneous single-part color developer per color film processing and method of using same” (priority 2002, dated 2003).
# Experiment: Solubility of Color Developing Agents CD-2 and CD-3 free base with co-solvent
# Type: physicochemical
# Set-up: unit not given here
# Conditions: free base form, same manner as Example 1
# Procedure: The co-solvent shown in TABLE I below were tested for their ability to solubilize KODAK Color Developing Agent CD-4 in free base form, in a solution matrix similar to conventional color developing concentrates. KODAK Color Developing Agent CD-4 was prepared in free base form by neutralizing a saturated solution of KODAK Color Developing Agent CD-4 disulfate salt with a stoichiometric quantity of 45% potassium hydroxide. The resulting mixture was stirred and allowed to separate into two layers, the KODAK Color Developing Agent CD-4 free base oil being in the top layer. The top layer was then drawn off for use in the solubility test.
# A solution was prepared containing approximately 90 g/l solution of the various co-solvents using a stock solution containing 233 g/l of potassium carbonate, 84.5 g/l of potassium bicarbonate and 67 g/l of potassium sulfite at pH 10.4. Free acid co-solvents were neutralized with a stoichiometric quantity of 45% potassium hydroxide before the test solution was prepared. KODAK Color Developing Agent CD-4 in free base was then added to each test solution with stirring, and the quantity was monitored by weight until precipitation occurred. Using the final volume of the saturated solution and the amount of color developing agent added, the solubility of the color developing agent was calculated.
# The solubility of KODAK Color Developing Agents CD-2 and CD-3 were tested in the same manner described in Example 1 for KODAK Color Developing Agent CD-4.
# [1] = co-solvent Diethylene glycol 90 g/l
# [2] = co-solvent Sodium Benzoate 85-88 g/l
SMILES,Color Developing Agent Solubility [1],Color Developing Agent Solubility [2]
"CCN(CC)c1ccc(N)c(C)c1.Cl [CD-2, 4-(N,N-diethyl)-2-methylaniline hydrochloride]",<4,12
"CCN(CCNS(C)(=O)=O)c1ccc(N)c(C)c1.CCN(CCNS(C)(=O)=O)c1ccc(N)c(C)c1.O=S(=O)(O)O.O=S(=O)(O)O.O=S(=O)(O)O [CD-3, 4-(N-ethyl-N-methanesulfonamidoethyl)-2-methylaniline sesquisulfate]",<4,66
